From patent publication US20110071163A1, “USE OF AN OPIOID RECEPTOR ANTAGONIST FOR THE TREATMENT OR PREVENTION OF GASTROINTESTINAL TRACT DISORDERS” (ADOLOR CORPORATION, priority 2009, published 2011)
Where “and” joins values, the source holds several entries; their conditions need not be identical. Equal values may be shown once. Entries after “also recorded” stand apart in the source; their conditions may differ. Read-outs that look alike come from different tables or passages of the source. Values belong to the compound of their own block, whether it stands above or below them.

Key:
[1] = Phase I multiple ascending dose clinical study in subjects with OIC; format: in vivo, human
Excerpt: The objective of the Phase I multiple ascending dose clinical study was to evaluate the safety, tolerability, pharmacokinetics, and clinical effect of multiple ascending doses of Compound I administered twice daily (BID) to subjects who have opioid induced constipation (OIC) as a result of chronic opioid therapy for persistent noncancer pain. The first part of the study was a randomized, double blind, placebo controlled, multiple ascending dose study during which subjects took 4 oral doses of study medication over 2 days while confined to the study unit. Each of the 0.10 mg, 0.25 mg, 0.35 mg, 0.50 mg […] BID dose cohorts included 4 subjects, and randomization was unbalanced, with a 3:1 ratio of Compound I treatment (n=3) to placebo treatment (n=1). The 0.75 mg BID cohort included only 2 subjects. Assessments of clinical effect included the following measures, which were assessed starting immediately after the first dose of study medication through discharge on day 3: (i) time to first bowel movement after the first dose of study medication; (ii) number of bowel movements; and (iii) bowel movement Comfort Scores, stool weight, and stool consistency as measured by the Bristol Stool Scale for each bowel movement that occurs while the subject was confined to the study unit.
For pharmacokinetic analyses, blood samples were collected from each subject on day 1 at approximately 1 hour before the first dose of study medication (time 0) and at each of the following times after the first dose of study medication: 15 min, 30 min, 60 min, 90 min, 2 h, 3 h, 4 h, 6 h, 8 h, 10 h, and 12 h. FIGS. 7A, 7B and 7C indicate the plasma levels of Compound I obtained after the first dose over the dosing interval of 12 h and for each of the 5 doses tested (0.10 mg, 0.25 mg, 0.35 mg, 0.50 mg and 0.75 mg BID).

[2] = Oral bioavailability in cynomologus monkey; details: in vivo, 0.1 mg/kg to 0.5 mg/kg
Excerpt: (§1) There are a number of approaches to determining the effective dose of Compound I for treating OIC or OBD. Four are outlined below. Depending on the approach, a number of basic assumptions were made in calculating the effective dose of Compound I for treating OIC or OBD: (i) The μ-opioid receptor is the primary target of Compound I to produce efficacy in the treatment of OIC or OBD, although other opioid receptors may also play a role. (ii) The systemic presence of Compound I in the periphery (but not in the CNS) is sufficient to produce robust efficacy in treating OIC or OBD. Thus, calculations were based on systemic plasma concentrations as opposed to possible topical or local effects in gut tissues, though these may also contribute to efficacy. (iii) The pharmacokinetic properties, specifically the oral bioavailability, of Compound I will be roughly similar in healthy volunteers and in patients with OIC or OBD.

[3] = Plasma protein binding (human); format: in vitro ADME; details: read-out: Plasma protein binding (% free drug)
[4] = test system: opioid receptors in the central nervous system; assay: Rat formalin test: reversal of morphine analgesia; format: in vivo; details: for Potency of naltrexone relative to Compound I in reversing the effects of morphine in the CNS: morphine 10 mg/kg s.c., naltrexone s.c., Compound I oral
Procedure: Rats were injected with the irritant formalin and with 10 mg/kg of morphine subcutaneously. The amount of analgesia was determined by the reduction in the number of times the rat licked or paid attention to the site of formalin injection (events). Rats were dosed either with 0.02 mg/kg naltrexone (subcutaneous dose) or 1, 3 or 10 mg/kg Compound I (oral dose) to determine the ability of the compounds to reverse the analgesic effect of morphine. […] The reversal of morphine-induced analgesia by opioid receptor antagonists in the formalin test is believed to be primarily a centrally-mediated effect.

opioid receptors = assay: Reversal of morphine-induced inhibition of gastrointestinal transit of charcoal meal in mice; format: in vivo; details: Compound I oral dose
Procedure: Mice were either dosed with 10 μg/kg morphine intracerebroventricularly or with 1 mg/kg morphine subcutaneously. The degree of gastrointestinal transit of charcoal meal in the mice was measured in the absence of Compound I and in the presence of varying oral doses of Compound I in order to determine the ability of the compound to reverse the inhibition of gastrointestinal (GI) transit induced by morphine. The minimum effective dose of Compound I required to reverse GI transit inhibition in mice dosed with morphine directly into the CNS was determined to be about 3.0 mg/kg oral dose. (FIG. 2) In contrast, the effective dose of Compound I required to reverse GI transit inhibition in mice dosed with morphine systemically was determined to be about 0.16 mg/kg oral dose.

[5] = biological target: T1, cloned human μ-opioid receptors (Homo sapiens, UniProt P35372); assay: In vitro receptor binding in CHO cell membranes; details: CHO cell membranes expressing cloned human μ-opioid receptors
T1 construct: expressed in transfected cells; host or cells: CHO cells (membranes)
T1 sequence (P35372 whole entry): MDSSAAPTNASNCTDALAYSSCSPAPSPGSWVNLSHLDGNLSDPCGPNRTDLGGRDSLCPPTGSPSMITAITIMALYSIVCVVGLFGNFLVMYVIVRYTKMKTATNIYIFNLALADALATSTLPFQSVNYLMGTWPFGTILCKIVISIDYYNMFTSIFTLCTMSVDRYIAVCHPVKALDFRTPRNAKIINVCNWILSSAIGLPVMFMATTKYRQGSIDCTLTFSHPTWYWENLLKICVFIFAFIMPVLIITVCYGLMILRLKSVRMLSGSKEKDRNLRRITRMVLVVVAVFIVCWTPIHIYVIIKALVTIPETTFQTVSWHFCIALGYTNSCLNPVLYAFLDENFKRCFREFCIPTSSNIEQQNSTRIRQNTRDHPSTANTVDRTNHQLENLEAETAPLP

μ-opioid receptor = biological target: T2, μ-opioid receptor (Homo sapiens, UniProt P35372); assay: Calculated effective dose and pharmacokinetic model of Compound I for treating OIC or OBD; details: humans
T2 construct: expressed in transfected cells; host or cells: CHO cells (membranes)
T2 sequence (P35372 whole entry): as above
Excerpt: as §1
(§2) The first approach was a calculation based on comparison of pharmacokinetic and pharmacological data for the highly peripheralized opioid receptor antagonist alvimopan. […] Webster et al. (2008) Pain 137:428-440.
A second approach was a calculation based on the potency (Ki) of Compound I as an antagonist for the […] receptor.
A third approach was to generate a pharmacokinetic model for Compound I at low doses. This was accomplished by assuming a linear relationship between dose and all parameters of the plasma time course for the 1 mg dose of Compound I, and extrapolating these to lower doses.

[6] = Plasma protein binding (mouse); format: in vitro ADME; details: read-out: Plasma protein binding (% free drug)
[7] = test system: P-glycoprotein (P-gp) transporter; assay: Partitioning in plasma and brain of wild-type and P-glycoprotein knockout mice; format: in vivo
Procedure: Wild-type or P-glycoprotein (P-gp) knockout mice were dosed with 2.5 mg/kg of Compound I intravenously. The mice were sacrificed and the amounts of Compound I in the blood and in the brain were assayed using standard techniques. […] Moreover, blood-brain barrier penetration of Compound I increased 7- to 19-fold in knockout mice that were deficient in the P-gp transporter.

[8] = Oral bioavailability in rat; format: in vivo
[9] = Phase 1 oral pharmacokinetics of Compound I in healthy subjects; format: in vivo, human; details: for Mean free Cmax plasma level: 1 mg single oral dose, healthy subjects
Procedure: as §2
If there is a potential for a degree of drug accumulation upon repeated dosing regimens, the doses associated with efficacy for treating OIC or OBD may be appreciably lower than the doses calculated above, i.e., as low as 0.01 to 0.02 mg whole body dose QD or BID (for a human weighing approximately 70 kg).

[10] = test system: opioid receptors in the CNS; assay: Phase 1 pharmacodynamic markers of central opioid receptor antagonism (morphine-induced miosis, ACTH, cortisol); format: in vivo, human; details: humans
Procedure: Determination of the lowest dose of Compound I that produces antagonism of opioid receptors in the CNS was addressed directly by examining the reported effect of Compound I on pharmacodynamic markers of central opioid receptor antagonism that were measured in the single and multiple dose Phase 1 clinical studies, i.e., the reversal of morphine-induced miosis (the effect on pupil diameter) and increases in adrenocorticotropic hormone (ACTH) and cortisol. The observed whole body dose of Compound I associated with a threshold reversal of morphine-induced miosis was 10 mg. Likewise, the observed whole body dose of Compound I associated with threshold increases in ACTH and cortisol was between 10 and 25 mg. A conservative estimate of the whole body dose for central opioid receptor antagonism was then determined by reducing these observed threshold doses by a half-log factor (i.e., 3-fold). Thus, the minimum doses of Compound I associated with pharmacologically relevant antagonism of opioid receptors in the CNS were conservatively estimated to be in the range of from about 3 mg to about 10 mg.

[11] = 0.5 mg BID, patients with OIC or OBD, Phase 2 (Webster et al. 2008), cited from earlier work
[12] = 0.10 mg and 0.25 mg doses, preliminary

bioavailability [2]: ~100% | fraction unbound [3]: 0.738 | Ki [5]: 0.36 nM | Whole body dose effective in treating OIC or OBD without antagonizing CNS μ-opioid receptors (calculated) (μ-opioid receptor; QD or BID, multiple rationales): approximately 0.1 mg/day | Whole body dose needed to achieve 0.36 nM of free drug (second approach) (μ-opioid receptor; linear extrapolation): 0.12 mg | Dose needed to produce a free drug plasma Cmax of 0.1 ng/ml (μ-opioid receptor; linear extrapolation below 1 mg): 0.087 mg | fraction unbound [6]: 0.64 | Compound I in blood plasma relative to brain ([7]; wild type mice, 2.5 mg/kg intravenously): 17 times | Oral bioavailability [8]: high oral bioavailability | Mean free Cmax plasma level ([9]; converted with MW 386.4 g/mol): 2.98 nM | Mean free Cmax plasma level ([9]; free drug estimated with mouse plasma protein binding): 1.15 ng/ml and 1.15^2 ng/ml | half-life ([9]; human, plasma, oral, humans, doses of 1-3 mg): ~12 h | Oral pharmacokinetics versus dose ([9]; humans, dose range 1 mg to 100 mg): highly consistent and dose-proportional
SMILES: COc1cc(CNCCC2CCOCC2)ccc1Oc1cnc(C(N)=O)cn1 [Compound I, 5-(2-methoxy-4-{[2-(tetrahydro-pyran-4-yl)-ethylamino]-methyl}-phenoxy)-pyrazine-2-carboxamide]
Amount effective for treating OIC or OBD confirmed in Phase I clinical studies [1]: approximately 0.1 mg/day | Pharmacological effect [1, 12]: produced the desired pharmacological effects | Tolerability [1, 12]: well-tolerated; also recorded: well tolerated | Times less potent than naltrexone as antagonist of opioid receptors in the central nervous system [4]: at least 100 times | Minimum effective dose to reverse GI transit inhibition (opioid receptors; morphine 10 μg/kg intracerebroventricularly (direct CNS)): about 3.0 mg/kg | Effective dose to reverse GI transit inhibition (opioid receptors; morphine 1 mg/kg subcutaneously (systemic)): about 0.16 mg/kg | P-gp transport ([7]; concluded from knockout mice): substrate for the efflux transporter P-gp | Whole body dose associated with threshold reversal of morphine-induced miosis [10]: 10 mg

fraction unbound [3]: 0.203
SMILES: C[C@H]1CN(C[C@H](Cc2ccccc2)C(=O)NCC(=O)O)CC[C@@]1(C)c1cccc(O)c1 [Alvimopan, alvimopan]
Mean free Cmax plasma level [11]: 0.1^1 ng/ml | Mean free Cmax plasma level ([11]; listed as alvimopan): approximately 0.1 ng/ml

SMILES: O=C1CC[C@@]2(O)[C@H]3Cc4ccc(O)c5c4[C@@]2(CCN3CC2CC2)[C@H]1O5 [naltrexone]
Potency of naltrexone relative to Compound I in reversing the effects of morphine in the CNS [4]: more than 100 times | Potency of naltrexone relative to Compound I in reversing the effects of morphine in the CNS ([4]; listed as Naltrexone): approximately 100 times
